Measured values taken from patent publication US20180327367A1, “MACROCYCLIC BROAD SPECTRUM ANTIBIOTICS” (priority 2015, published 2018).
Converted amounts (≈) assume the structure as drawn. Like-named read-outs stand apart in the source and are kept apart here.

Experiments:
[1] = test system: Escherichia coli ATCC 25922; assay: Minimum inhibitory concentration, broth micro-dilution (CLSI), E. coli; type: cell-based; conditions: 35° C., 22 hours; for MIC: Escherichia coli, ATCC25922, 22 h
[2] = test system: Methicillin Resistant Staphylococcus aureus strain USA 300, NRS384; assay: Minimum inhibitory concentration, broth micro-dilution (CLSI), S. aureus; type: cell-based; conditions: 35° C., 22 hours; for MIC: Staphylococcus aureus, MRSA / NRS 384 / USA300, 22 h
Method in brief: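 CLSI broth microdilution in cation-adjusted Mueller Hinton Broth with 0.002% Tween-80; inoculum final OD600 0.0005, 22 hours at 35° C. Ten 2-fold dilutions starting at 4 μg/mL (protocol 2) or 0.5 μg/mL (protocol 3).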

[3] = test system: Escherichia coli MC4100 harboring the IMP4213 (E. coli IMP); assay: microbe, parasite or virus in culture; type: cell-based; conditions: 35° C., 22 hours; for MIC (μg/mL) E. coli IMP: E. coli MC4100 IMP4213, increased outer-membrane permeability; for MIC: Escherichia coli, 22 h, read-out: MIC (μg/mL) E. coli IMP, E. coli MC4100 IMP4213, increased outer-membrane permeability
Method in brief: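 Top conc 4 μg/mL (protocol 2) or 0.5 μg/mL (protocol 3), 2-fold series, 10 points. Final OD600 0.0005; 22 h, 35° C. IMP4213 = permeable outer membrane.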

[4] = target: T1, SpsB (Staphylococcus aureus signal peptidase) (Staphylococcus aureus, UniProt P0A070); assay: cell-based; type: biochemical; conditions: SpsB IC50, whole-cell S. aureus (USA300 background, overexpressing SpsB) as SpsB source; fluorogenic peptide substrate, kinetic read 30 min
T1 construct: This assay uses a suspension of Staphylococcus aureus cells as a source of SpsB instead of recombinant SpsB protein; endogenous in cells; host or cells: S. aureus, USA300 background, overexpressing SpsB (whole-cell suspension from frozen pellets)
Protocol: A kinetic fluorogenic enzyme activity assay was used to assess inhibition of SpsB (Staphylococcus aureus signal peptidase) activity and IC50s were determined. This assay uses a suspension of Staphylococcus aureus cells as a source of SpsB instead of recombinant SpsB protein.
Cell preparation: Luria broth (LB) was inoculated with S. aureus (USA300 background, overexpressing SpsB) and shaken at 37° C. until an OD600 nm of 1.5-2.0 was reached (˜4 hr). The culture was then diluted to an OD600 nm of 1.0 with LB, aliquoted and centrifuged at 10,000×g for 2 mins. The supernatant was removed and the pellet was resuspended in phosphate buffer (1×PBS, 12.5 mg/L MgCl2, 25 mg/L CaCl2, 0.1% Tween-80) to an OD600 nm of 0.5, then centrifuged again at 10,000x g for 2 mins. The supernatant was removed and the pellets were frozen at −20° C.
Test compounds were prepared in DMSO at a concentration of 10 mg/mL. These compound stocks were diluted into DMSO to a concentration of 25 μg/mL and serial 3-fold dilutions were made in DMSO, for a total of 11 compound concentrations. 20 nL of each compound solution was pre-spotted into a white 384-well plate (50 μL/well polypropylene, Nunc) using acoustic fluid transfer (Echo).
Frozen S. aureus pellets were resuspended in assay buffer (1x PBS, 12.5 mg/L MgCl2, 25 mg/L CaCl2, 0.1% Tween-80) to an OD600 nm of 0.05, then mixed 1:1 (v/v) with 20 μM substrate ((Dabcyl)βAla-KPAKAAE(Edans)) in assay buffer, and this solution was added (20 μL/well) to the 384-well plate that had been pre-spotted with compound. Fluorescence intensity was then immediately read kinetically for 30 minutes with 2 minute read intervals to monitor cleavage of the internally quenched peptide substrate (excitation wavelength=340 nm, emission wavelength=490 nm, Molecular Devices Spectramax M5). Reaction rate (slope) was plotted against inhibitor concentration to derive the IC50.

[5] = read-out: MIC (μg/mL) E. coli, E. coli ATCC 25922
[6] = read-out: MIC (μg/mL) S. aureus, MRSA USA 300 NRS384
[7] = E. coli ATCC 25922, read-out: MIC (μg/mL) E. coli
[8] = MRSA USA 300 NRS384, read-out: MIC (μg/mL) S. aureus

T1 sequence (P0A070 whole entry): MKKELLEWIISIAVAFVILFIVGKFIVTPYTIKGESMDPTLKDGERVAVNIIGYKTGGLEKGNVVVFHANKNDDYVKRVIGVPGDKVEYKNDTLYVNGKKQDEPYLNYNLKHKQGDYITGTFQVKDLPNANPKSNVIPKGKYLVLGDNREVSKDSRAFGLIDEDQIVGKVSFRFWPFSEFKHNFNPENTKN

SMILES | MIC (μg/mL) E. coli ([1]; E. coli ATCC 25922) | MIC (μg/mL) S. aureus ([2]; MRSA USA 300 NRS384) | MIC (μg/mL) E. coli IMP [3] | IC50 [4] | MIC [1, 5] | MIC [2, 6] | MIC [3] | MIC [1, 7] | MIC [2, 8]
Cc1cc(C2CC2c2ccccc2)ccc1C(=O)N[C@@H](CCN)C(=O)N(C)[C@@H]1C(=O)N[C@@H](C)C(=O)N[C@H](C(=O)NCC#N)Cc2ccc(OCCN)c(c2)-c2cc1ccc2OCCN (mixture of isomers) [Compound 440] | 8 µg/mL | 0.19 µg/mL | 0.063 µg/mL | 810 pM |  |  |  |  | 
C[C@@H]1NC(=O)[C@@H](N(C)C(=O)[C@H](CCCCN)NC(=O)c2ccc(-c3ccc(Cl)cc3)cc2)c2ccc(OCC(O)CN)c(c2)-c2cc(ccc2O)C[C@@H](C(=O)NCC#N)NC1=O (mixture of isomers) [Compound 514] |  |  |  | 2000 pM | 32 µg/mL | 0.25 µg/mL | 0.19 µg/mL |  | 
CCCCCCCCCC(=O)N[C@@H](C(=O)N[C@@H](CCN)C(=O)N(C)[C@@H]1C(=O)N[C@@H](C)C(=O)N[C@H](C(=O)NCC#N)Cc2ccc(OCCN)c(c2)-c2cc1ccc2OCCN)C(C)O (single isomer, unassigned) [Compound 357-P2] |  |  |  | 1100 pM | 12 µg/mL (≈ 13.4 µM) | 0.094 µg/mL (≈ 0.105 µM) | 0.094 µg/mL (≈ 0.105 µM) |  | 
CCCCCCCCC(O)C(=O)NC(CO)C(=O)N(C)C1C(=O)NC(C)C(=O)NC(C(=O)NCC#N)Cc2ccc(OCCN)c(c2)-c2cc1ccc2OCCN (single isomer, unassigned) [Compound 393-P1] |  |  |  | 5900 pM | > 64 µg/mL | 2 µg/mL (≈ 2.52 µM) | 1 µg/mL (≈ 1.26 µM) |  | 
CCCCCCCCC(O)C(=O)NC(CO)C(=O)N(C)C1C(=O)NC(C)C(=O)NC(C(=O)NCC#N)Cc2ccc(OCCN)c(c2)-c2cc1ccc2OCCN (single isomer, unassigned) [Compound 393-P2] | >64 µg/mL | 1 µg/mL (≈ 1.26 µM) | 2 µg/mL (≈ 2.52 µM) | 4700 pM |  |  |  |  | 
CCCCCCCCC(F)C(=O)NC(CO)C(=O)N(C)C1C(=O)NC(C)C(=O)NC(C(=O)NCC#N)Cc2ccc(OCCN)c(c2)-c2cc1ccc2OCCN (single isomer, unassigned) [Compound 394-P1] |  |  |  | 3900 pM | > 64 µg/mL | 1 µg/mL (≈ 1.25 µM) | 0.25 µg/mL (≈ 0.314 µM) |  | 
CCCCCCCCC(F)C(=O)NC(CO)C(=O)N(C)C1C(=O)NC(C)C(=O)NC(C(=O)NCC#N)Cc2ccc(OCCN)c(c2)-c2cc1ccc2OCCN (single isomer, unassigned) [Compound 394-P2] | 64 µg/mL (≈ 80.3 µM) | 0.5 µg/mL (≈ 0.627 µM) | 0.38 µg/mL (≈ 0.477 µM) | 2700 pM |  |  |  |  | 
CCCCCCCCCCNCCC(=O)N[C@@H](CCCCN)C(=O)N(C)[C@@H]1C(=O)N[C@@H](C)C(=O)N[C@H](C(=O)NCC#N)Cc2ccc(OCCN)c(c2)-c2cc1ccc2OCCN [Compound 101] |  |  |  | 720 pM |  |  | 1.7 µg/mL (≈ 1.94 µM) | 48 µg/mL (≈ 54.7 µM) | 0.094 µg/mL (≈ 0.107 µM)
CCCCCCCCCCCCC(=O)N[C@@H](CCN)C(=O)N(C)[C@@H]1C(=O)N[C@@H](C)C(=O)N[C@H](C(=O)NCC#N)Cc2ccc(OCCN)c(c2)-c2cc1ccc2OCCN [Compound 102] |  |  |  | 520 pM |  |  | 0.0078 µg/mL (≈ 0.00935 µM) | 0.25 µg/mL (≈ 0.3 µM) | 0.023 µg/mL (≈ 0.0276 µM)
CCCCCCCCCCCC(=O)N[C@@H](CCN)C(=O)N(C)[C@@H]1C(=O)N[C@@H](C)C(=O)N[C@H](C(=O)NCC#N)Cc2ccc(OCCN)c(c2)-c2cc1ccc2OCCN [Compound 103] |  |  |  | 570 pM |  |  | 0.0078 µg/mL (≈ 0.00951 µM) | 1 µg/mL (≈ 1.22 µM) | 0.023 µg/mL (≈ 0.028 µM)
CCCCCCCCCCC(=O)N[C@@H](CCN)C(=O)N(C)[C@@H]1C(=O)N[C@@H](C)C(=O)N[C@H](C(=O)NCC#N)Cc2ccc(OCCN)c(c2)-c2cc1ccc2OCCN [Compound 104] |  |  |  | 500 pM |  |  | 0.023 µg/mL (≈ 0.0285 µM) | 4 µg/mL (≈ 4.96 µM) | 0.047 µg/mL (≈ 0.0583 µM)
CCCCCCCCCC(=O)N[C@@H](CCN)C(=O)N(C)[C@@H]1C(=O)N[C@@H](C)C(=O)N[C@H](C(=O)NCC#N)Cc2ccc(OCCN)c(c2)-c2cc1ccc2OCCN [Compound 105] |  |  |  | 820 pM |  |  | 0.031 µg/mL (≈ 0.0391 µM) | 8 µg/mL (≈ 10.1 µM) | 0.13 µg/mL (≈ 0.164 µM)
